In ChEMBL document CHEMBL1201862, “PubChem BioAssay data set” (2004):
Active and inactive are the calls of the source.

Key:
Fatty acid synthase [1] = target: T1, Fatty acid synthase (Homo sapiens, UniProt P49327); assay: FAS thioesterase domain inhibitors, dose response, biochemical, endpoint fluorescence intensity, uHTS hits (AID 624327); format: functional;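 also: fluorescence from hydrolysis of an O-methyl fluorescein acyl ester substrate by the enzyme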
Fatty acid synthase [2] = target: T1, Fatty acid synthase; assay: FAS thioesterase domain inhibitors, dose response, biochemical, kinetic fluorescence intensity (AID 624326); format: functional;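 also: rate of fluorescence rise from hydrolysis of a fluorogenic O-methyl fluorescein ester substrate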
[3] = target: T2, Replicative DNA helicase DnaB (Mycobacterium tuberculosis, UniProt P9WMR3); assay: DnaB intein splicing inhibitors, dose response, biochemical, cell-free fluorescence (AID 449749); format: functional
T2 sequence (P9WMR3 whole entry): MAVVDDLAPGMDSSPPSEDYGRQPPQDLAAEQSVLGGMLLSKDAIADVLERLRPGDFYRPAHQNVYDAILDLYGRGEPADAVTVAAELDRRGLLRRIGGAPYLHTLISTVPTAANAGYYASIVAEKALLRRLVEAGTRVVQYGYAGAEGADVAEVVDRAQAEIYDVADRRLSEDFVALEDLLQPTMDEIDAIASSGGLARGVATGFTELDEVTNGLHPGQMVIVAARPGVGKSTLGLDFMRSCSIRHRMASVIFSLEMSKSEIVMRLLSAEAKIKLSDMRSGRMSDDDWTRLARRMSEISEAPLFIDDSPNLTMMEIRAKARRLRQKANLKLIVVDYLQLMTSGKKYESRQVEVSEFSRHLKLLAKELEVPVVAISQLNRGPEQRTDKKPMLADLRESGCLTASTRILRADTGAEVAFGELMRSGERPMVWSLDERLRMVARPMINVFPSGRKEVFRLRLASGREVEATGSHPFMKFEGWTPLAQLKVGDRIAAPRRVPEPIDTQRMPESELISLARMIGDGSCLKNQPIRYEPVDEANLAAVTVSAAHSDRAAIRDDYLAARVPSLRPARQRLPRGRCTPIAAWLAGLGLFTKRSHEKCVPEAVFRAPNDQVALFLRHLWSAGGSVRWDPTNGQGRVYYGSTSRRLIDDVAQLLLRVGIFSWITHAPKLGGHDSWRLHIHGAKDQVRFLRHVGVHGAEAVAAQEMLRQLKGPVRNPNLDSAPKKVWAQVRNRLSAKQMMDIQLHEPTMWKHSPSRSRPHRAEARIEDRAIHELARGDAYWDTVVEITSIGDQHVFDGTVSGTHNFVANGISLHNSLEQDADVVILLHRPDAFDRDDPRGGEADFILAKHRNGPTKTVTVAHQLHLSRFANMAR

Protein RecA = target: T3, Protein RecA (Mycobacterium tuberculosis, UniProt P9WHJ3); assay: Fluorescence Cell-Free Homogeneous Dose Retest to Identify Inhibitors of RecA-Intein Splicing Activity. [Related pubchem assays (depositor defined):AID2097, AID2223, AID489010, AID492950]; format: functional
T3 sequence (P9WHJ3 whole entry): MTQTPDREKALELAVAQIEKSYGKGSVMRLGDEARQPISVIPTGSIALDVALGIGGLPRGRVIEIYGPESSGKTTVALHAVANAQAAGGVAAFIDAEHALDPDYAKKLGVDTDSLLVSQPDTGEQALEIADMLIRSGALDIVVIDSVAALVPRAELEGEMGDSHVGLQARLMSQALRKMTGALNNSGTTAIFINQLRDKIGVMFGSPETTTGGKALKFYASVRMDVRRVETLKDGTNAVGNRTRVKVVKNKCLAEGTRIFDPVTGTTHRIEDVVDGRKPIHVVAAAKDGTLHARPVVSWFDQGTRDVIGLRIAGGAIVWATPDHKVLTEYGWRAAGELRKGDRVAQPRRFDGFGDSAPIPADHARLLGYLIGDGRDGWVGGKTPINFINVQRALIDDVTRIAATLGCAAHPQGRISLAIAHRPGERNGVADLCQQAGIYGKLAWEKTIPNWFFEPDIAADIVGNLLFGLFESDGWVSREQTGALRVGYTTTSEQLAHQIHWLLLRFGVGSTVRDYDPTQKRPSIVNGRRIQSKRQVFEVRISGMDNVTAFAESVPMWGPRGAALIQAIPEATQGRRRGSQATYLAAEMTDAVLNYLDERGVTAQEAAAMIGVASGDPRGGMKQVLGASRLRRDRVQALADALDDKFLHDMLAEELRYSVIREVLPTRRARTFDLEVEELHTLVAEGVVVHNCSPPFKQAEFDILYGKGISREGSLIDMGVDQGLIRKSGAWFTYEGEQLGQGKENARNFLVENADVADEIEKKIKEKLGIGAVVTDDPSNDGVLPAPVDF

[4] = target: FAD-linked sulfhydryl oxidase ALR (Homo sapiens, UniProt P55789); assay: inhibitors of human ALR sulfhydryl oxidase, dose response, biochemical, H2O2 detection, luminescence, cherry-pick (AID 493248)
Chain of FAD-linked sulfhydryl oxidase ALR (P55789 whole entry): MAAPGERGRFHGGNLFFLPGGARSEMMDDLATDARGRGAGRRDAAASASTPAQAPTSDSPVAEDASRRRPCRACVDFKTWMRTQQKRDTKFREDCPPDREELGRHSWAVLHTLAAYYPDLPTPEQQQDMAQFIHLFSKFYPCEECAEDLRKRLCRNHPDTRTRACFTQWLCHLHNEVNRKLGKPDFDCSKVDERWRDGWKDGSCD

[5] = Luminescence Cell-Based Dose Retest to Confirm Inhibitors of Cancer Stem Cells. [Related pubchem assays (depositor defined):AID2717, AID2721]; format: functional; details: Homo sapiens
INS1 = assay: beta cell apoptosis inhibitors, cytokine rescue, dose response, luminescence, retest (AID 449756); format: functional, cell-based; details: Rattus norvegicus;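 also: cell death triggered by IL-1 beta plus TNF-alpha plus IFN-gamma mixture; protective hits raise ATP signal compared with cytokine alone wells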
Cytochrome P450 1A2 = target: T4, Cytochrome P450 1A2 (Homo sapiens, UniProt P05177);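 also: PubChem cytochrome P450 panel assay, CYP1A2 panel member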
T4 sequence (P05177 whole entry): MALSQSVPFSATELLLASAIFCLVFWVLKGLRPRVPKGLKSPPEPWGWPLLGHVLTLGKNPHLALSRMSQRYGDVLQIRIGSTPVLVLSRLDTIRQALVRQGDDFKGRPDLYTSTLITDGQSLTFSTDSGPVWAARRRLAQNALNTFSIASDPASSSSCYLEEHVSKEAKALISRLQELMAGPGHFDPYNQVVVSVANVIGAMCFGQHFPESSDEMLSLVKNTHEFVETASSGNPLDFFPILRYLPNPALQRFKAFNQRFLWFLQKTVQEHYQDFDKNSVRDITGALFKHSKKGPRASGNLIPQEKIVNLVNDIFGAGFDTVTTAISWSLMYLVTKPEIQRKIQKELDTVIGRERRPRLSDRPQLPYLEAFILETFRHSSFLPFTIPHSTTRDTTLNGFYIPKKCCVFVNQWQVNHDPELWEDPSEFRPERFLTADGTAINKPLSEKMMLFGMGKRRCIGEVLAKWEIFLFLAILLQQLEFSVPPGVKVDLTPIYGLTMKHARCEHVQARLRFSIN

[6] = system: Streptococcus sp. 'group A'; assay: growth inhibition of control SK(-) GAS strain, dose response, counter-screen for streptokinase expression inhibitor project, luminescence, kanamycin, BacTiterGlo, confirmation (AID 1900); format: functional, organism-based
Streptokinase A = target: T5, Streptokinase A (Streptococcus pyogenes serotype M1, UniProt P10520); assay: S. pyogenes streptokinase expression inhibitors, potency, dose response, plasminogen activation absorbance, OD405 (AID 1914); format: functional, Streptococcus pyogenes M1 GAS;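 also: secreted streptokinase activity via plasminogen activation per viability signal from cell pellet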
T5 sequence (P10520 whole entry): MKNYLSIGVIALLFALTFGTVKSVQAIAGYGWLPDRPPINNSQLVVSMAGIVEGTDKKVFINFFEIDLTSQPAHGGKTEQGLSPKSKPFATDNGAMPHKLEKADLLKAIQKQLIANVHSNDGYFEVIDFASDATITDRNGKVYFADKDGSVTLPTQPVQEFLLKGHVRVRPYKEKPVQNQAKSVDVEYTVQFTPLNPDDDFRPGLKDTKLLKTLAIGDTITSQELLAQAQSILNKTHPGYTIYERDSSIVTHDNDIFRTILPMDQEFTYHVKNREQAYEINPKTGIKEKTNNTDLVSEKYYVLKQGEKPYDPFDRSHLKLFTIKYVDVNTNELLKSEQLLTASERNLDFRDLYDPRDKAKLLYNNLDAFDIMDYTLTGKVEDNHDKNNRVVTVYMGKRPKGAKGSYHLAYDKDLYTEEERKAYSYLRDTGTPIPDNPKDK

Streptococcus = assay: Group A Streptococcus viability loss, dose response, counter-screen for streptokinase expression inhibitor project, luminescence, BacTiterGlo (AID 1915); format: functional, organism-based;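 also: potency for reduction of bacterial viability or growth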
[7] = inhibitors of intracellular T. cruzi replication, confirmation, NIH3T3 host cells, beta-gal luminescence (AID 2044); format: functional, cell-based;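 also: intracellular parasites grown in NIH/3T3 mouse fibroblasts as host cells; luminescent beta-galactosidase reporter signal from transgenic T. cruzi replicating inside host cells; inhibitors lower the luminescence signal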
[8] = cytotoxicity toward NIH3T3 fibroblasts, dose response, counter-screen, cell-based, ATP luminescence, mouse fibroblasts (AID 2010); format: functional;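 also: cells exposed to compound for about 90 hours before reading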

T1 sequence (P49327 whole entry, the tested form may be a part): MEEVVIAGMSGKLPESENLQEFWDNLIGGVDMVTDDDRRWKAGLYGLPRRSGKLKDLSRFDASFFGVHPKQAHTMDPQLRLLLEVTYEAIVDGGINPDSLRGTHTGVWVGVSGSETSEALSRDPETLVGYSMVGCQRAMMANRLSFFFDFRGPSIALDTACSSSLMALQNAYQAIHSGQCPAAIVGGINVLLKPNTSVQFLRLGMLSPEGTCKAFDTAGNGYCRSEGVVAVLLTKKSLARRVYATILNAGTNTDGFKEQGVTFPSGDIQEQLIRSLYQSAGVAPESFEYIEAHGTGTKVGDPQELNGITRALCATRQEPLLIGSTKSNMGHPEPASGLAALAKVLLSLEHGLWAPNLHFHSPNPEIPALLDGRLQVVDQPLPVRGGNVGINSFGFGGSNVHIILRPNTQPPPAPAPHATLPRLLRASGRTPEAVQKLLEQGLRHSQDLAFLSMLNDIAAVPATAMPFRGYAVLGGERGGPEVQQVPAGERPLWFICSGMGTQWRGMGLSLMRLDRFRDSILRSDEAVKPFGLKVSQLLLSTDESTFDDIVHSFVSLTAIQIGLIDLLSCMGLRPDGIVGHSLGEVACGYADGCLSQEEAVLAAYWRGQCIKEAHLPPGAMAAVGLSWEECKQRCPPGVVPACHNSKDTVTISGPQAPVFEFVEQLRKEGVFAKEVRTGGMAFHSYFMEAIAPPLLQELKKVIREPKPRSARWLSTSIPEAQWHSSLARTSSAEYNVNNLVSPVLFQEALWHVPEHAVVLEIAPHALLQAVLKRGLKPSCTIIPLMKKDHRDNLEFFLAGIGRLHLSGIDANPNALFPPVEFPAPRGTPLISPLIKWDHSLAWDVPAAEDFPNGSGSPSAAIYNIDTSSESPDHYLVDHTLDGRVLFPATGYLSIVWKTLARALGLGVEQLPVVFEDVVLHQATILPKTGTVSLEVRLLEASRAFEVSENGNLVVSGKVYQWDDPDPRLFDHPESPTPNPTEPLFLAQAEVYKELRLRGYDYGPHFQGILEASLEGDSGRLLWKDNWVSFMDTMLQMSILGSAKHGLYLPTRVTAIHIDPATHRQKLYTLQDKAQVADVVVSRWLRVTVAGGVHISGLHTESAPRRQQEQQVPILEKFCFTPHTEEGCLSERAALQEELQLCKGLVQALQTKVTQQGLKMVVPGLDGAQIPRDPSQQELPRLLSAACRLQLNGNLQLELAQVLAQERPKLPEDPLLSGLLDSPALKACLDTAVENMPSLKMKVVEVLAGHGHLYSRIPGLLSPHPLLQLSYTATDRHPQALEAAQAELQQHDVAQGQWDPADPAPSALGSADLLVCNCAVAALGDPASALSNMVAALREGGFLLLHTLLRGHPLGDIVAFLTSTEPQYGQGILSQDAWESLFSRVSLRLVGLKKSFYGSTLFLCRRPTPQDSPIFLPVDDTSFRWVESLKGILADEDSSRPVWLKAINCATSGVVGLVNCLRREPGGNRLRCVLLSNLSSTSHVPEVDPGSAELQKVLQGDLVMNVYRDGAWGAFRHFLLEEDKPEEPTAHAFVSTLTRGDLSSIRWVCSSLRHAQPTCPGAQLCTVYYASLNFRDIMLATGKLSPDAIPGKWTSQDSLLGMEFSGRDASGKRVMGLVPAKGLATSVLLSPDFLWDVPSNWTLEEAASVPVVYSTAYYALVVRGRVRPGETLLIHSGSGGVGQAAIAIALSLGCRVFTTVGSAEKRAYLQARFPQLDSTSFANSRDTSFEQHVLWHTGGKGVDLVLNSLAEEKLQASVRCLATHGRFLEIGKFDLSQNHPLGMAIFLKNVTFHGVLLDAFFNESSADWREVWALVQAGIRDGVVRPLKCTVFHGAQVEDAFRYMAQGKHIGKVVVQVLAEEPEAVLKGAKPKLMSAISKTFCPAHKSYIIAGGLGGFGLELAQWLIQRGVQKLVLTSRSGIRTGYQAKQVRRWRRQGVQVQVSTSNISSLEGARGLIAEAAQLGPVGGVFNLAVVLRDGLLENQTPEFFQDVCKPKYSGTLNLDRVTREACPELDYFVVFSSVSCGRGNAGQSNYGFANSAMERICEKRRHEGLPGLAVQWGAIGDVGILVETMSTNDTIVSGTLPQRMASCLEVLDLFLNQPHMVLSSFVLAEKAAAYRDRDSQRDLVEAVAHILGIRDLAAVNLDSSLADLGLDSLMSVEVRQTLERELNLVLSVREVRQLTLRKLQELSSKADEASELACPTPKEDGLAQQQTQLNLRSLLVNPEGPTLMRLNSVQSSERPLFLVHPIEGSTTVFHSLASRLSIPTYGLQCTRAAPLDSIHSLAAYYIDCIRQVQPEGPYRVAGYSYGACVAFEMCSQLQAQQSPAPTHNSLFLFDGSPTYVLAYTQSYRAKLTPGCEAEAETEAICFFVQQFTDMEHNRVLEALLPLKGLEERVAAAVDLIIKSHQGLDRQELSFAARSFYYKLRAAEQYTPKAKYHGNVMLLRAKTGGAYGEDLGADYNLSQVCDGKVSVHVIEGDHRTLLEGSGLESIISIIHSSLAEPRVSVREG

Compound	IC50 (Fatty acid synthase [1])	IC50 (Fatty acid synthase [2])	AC50 [3]	EC50 (Protein RecA)	also measured
O=C(CC1C[C@H](C(=O)N2CCOCC2)[C@@]2(CCC3CCCC3)c3[nH]c4ccccc4c3CCN2C1=O)NCCN1CCOCC1 (stereo partly drawn)	2.6 µM (active)	2.17 µM (active)	–	–	–
Cc1cc(C)n(-c2ccc([N+](=O)[O-])cc2)n1	–	–	> 380 µM (inactive)	> 380 µM (inactive)	–
Fc1ccc(-n2c(Cc3ccccc3)nnc2SCc2nc(-c3ccc(Cl)cc3)no2)cc1	14 µM (active)	8.88 µM (active)	–	–	–
O=c1[nH]cc(O)c(=O)[nH]1	–	–	7.97 µM (active)	9.27 µM (active)	–
Cc1nc(C#N)c(N/N=C/c2cccc(Cl)c2)o1	–	–	–	–	AC50 [4]: 1.66 µM (active)
O=C(CCN1C(=O)/C(=C/c2cccs2)SC1=S)Nc1ccc(C(=O)O)c(O)c1	–	–	5.23 µM (active)	13.3 µM (active)	–
Cc1n[nH]c2c1C(c1c[nH]nc1-c1ccc(F)cc1)C(C#N)=C(N)O2 (stereo not drawn)	–	–	12.1 µM (active)	3.88 µM (active)	–
Cc1ccc(C2C(C#N)=C(N)Oc3[nH]nc(-c4cccs4)c32)s1 (stereo not drawn)	–	–	1.54 µM (active)	1.82 µM (active)	–
O=C(/C=C/c1cccc([N+](=O)[O-])c1)NCCc1ccc(F)cc1	10.7 µM (active)	11.8 µM (active)	–	–	–
COc1ccc2[nH]c(N3CCCC3)nc2c1	–	–	–	–	AC50 [4]: 6.11 µM (active)
Cc1ccccc1CNc1ccc(C(CC(N)=O)NC(=O)c2ccc(Br)cc2)cc1[N+](=O)[O-] (stereo not drawn)	–	–	–	–	AC50 [5]: 0.986 µM (active); AC50 (INS1): 14.9 µM (active)
O=C(c1cc2cc3ccc(Cl)cc3nc2o1)N1CCCCCC1	18.7 µM (active)	15.6 µM (active)	–	–	–
CCCCCOP(=O)(OCCCCC)C1(NS(=O)(=O)c2ccccc2)C=CC(=O)c2ccccc21 (stereo not drawn)	–	–	2.96 µM (active)	2.69 µM (active)	–
CCNc1ccc(S(=O)(=O)N(C)C)cc1NCC(=O)Nc1ccccc1Cl	–	–	–	–	AC50 [4]: 5.58 µM (active)
COc1ccc(Cn2c(S)nnc2-c2ccc(OC)cc2)cc1	–	–	–	–	AC50 [4]: 0.009 µM (active)
Cn1sc(NC(=O)c2ccc(Cl)cc2)nc1=O	–	–	–	–	AC50 [4]: 1.88 µM (active)
Oc1ccc(Br)cc1-c1cc(-c2ccc(Cl)cc2)[nH]n1	–	–	–	–	AC50 (INS1): 4.87 µM (active)
CCN(CC)S(=O)(=O)c1ccc(N2CCc3ccccc3C2)nc1	4.19 µM (active)	9.71 µM (active)	–	–	–
CN(C)S(=O)(=O)c1cccc(-c2cn3cccnc3n2)c1	–	–	–	–	AC50 [4]: 0.278 µM (active)
O=C(CN1CCN(S(=O)(=O)c2ccc(Cl)cc2)CC1)Nc1ccc2c(c1)OCO2	–	–	55.9 µM (active)	> 380 µM (inactive)	AC50 (Cytochrome P450 1A2): 15.8 µM (inconclusive)
Cc1c(C)c2ccc(OCC(=O)N3CCN(c4ccccc4)CC3)cc2oc1=O	5.34 µM (active)	6.95 µM (active)	–	–	–
COc1ccc(C2CC(c3cccs3)=NN2C(=O)CSC2=NCCS2)cc1 (stereo not drawn)	–	–	10.9 µM (active)	5.31 µM (active)	EC50 [6]: 21.5 µM (active); EC50 (Streptokinase A): > 150 µM (not active); EC50 (Streptococcus): > 150 µM (not active)
Cc1ccn2c(=O)nc(SCC(=O)N3N=C(c4cccs4)CC3c3ccc(F)cc3)nc2c1 (stereo not drawn)	13.9 µM (active)	10.3 µM (active)	–	–	EC50 [7]: 1.35 µM (active); EC50 [8]: > 60 µM (not active)
CN(C)S(=O)(=O)c1ccc(C(=O)N2CCN=C2SCc2cccnc2)cc1	–	–	–	–	AC50 [4]: 0.017 µM (active)
O=C(COC(=O)c1cccc([N+](=O)[O-])c1)NC1CCCC1	9.58 µM (active)	8.78 µM (active)	–	–	–
Cc1noc(C)c1NC(=O)Nc1cccc2c1O[C@H](CN(C)C(=O)Nc1ccccc1)[C@@H](C)CN([C@H](C)CO)C2=O	13 µM (active)	9.53 µM (active)	–	–	–
COc1ccc(NC2CCCN(C(=O)CCc3ccncc3)C2)cc1OC (stereo not drawn)	–	–	–	–	AC50 [4]: 4.75 µM (active)
CCOC(=O)Cc1c(O)oc2nnc(C)c-2c1C	–	–	> 380 µM (inactive)	19.1 µM (active)	–
